# Biological target: T1, CDK5/p35 (Homo sapiens, UniProt Q00535)
# T1 construct: purchased Thermo Fisher Scientific (Life Technologies) SelectScreen
# Experiment: SelectScreen Z'LYTE
# Assay type: biochemical
# How it was run: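 Percent values come from Thermo SelectScreen profiling of NU5455, combining activity and binding assays. CSF1R was run in Z'LYTE format at Km app ATP, and CAMK1 in Adapta format with ATP listed at 10.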
# T1 sequence (Q00535 whole entry): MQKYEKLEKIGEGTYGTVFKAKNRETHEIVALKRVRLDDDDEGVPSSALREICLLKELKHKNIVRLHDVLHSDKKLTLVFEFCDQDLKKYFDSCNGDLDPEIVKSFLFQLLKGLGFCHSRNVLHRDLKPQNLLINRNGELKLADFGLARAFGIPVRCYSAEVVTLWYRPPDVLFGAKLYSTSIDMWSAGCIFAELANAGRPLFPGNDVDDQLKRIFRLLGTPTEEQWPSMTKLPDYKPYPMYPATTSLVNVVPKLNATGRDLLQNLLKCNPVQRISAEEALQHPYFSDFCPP
# T1 sequence (Q15078 whole entry partner): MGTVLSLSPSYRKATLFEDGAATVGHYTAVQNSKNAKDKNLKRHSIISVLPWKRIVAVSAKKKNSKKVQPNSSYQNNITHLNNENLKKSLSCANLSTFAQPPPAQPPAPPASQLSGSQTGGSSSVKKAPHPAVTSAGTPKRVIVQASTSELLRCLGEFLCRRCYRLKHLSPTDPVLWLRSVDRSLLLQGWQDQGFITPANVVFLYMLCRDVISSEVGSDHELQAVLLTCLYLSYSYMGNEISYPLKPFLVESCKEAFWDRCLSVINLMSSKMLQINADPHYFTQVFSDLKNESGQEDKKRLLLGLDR
compound,measurement,value
CN(C(=O)CN1CCOCC1)c1ccc2sc3c(-c4cccc5c(=O)cc(N6CC7CCC(C6)O7)oc45)cccc3c2c1 [NU5455],inhibition at 1 µM,-8.6%
